Results on one substance are retold here after US20070293445A1, “Stable Elsamitrucin Salts Suitable for Pharmaceutical Formulations” (SPECTRUM PHARMACEUTICALS, INC., priority 2006, published 2007).

Where two headings read alike, the source gives them in different places.

One data set concerns MCF7DX. To be noted: MCF7DX subline; cited from earlier work.
The test system of data set [1] is SK-MES-1 human non-small cell lung carcinoma. As to the kind of experiment: MTT cell growth inhibition, SK-MES-1. To be noted: 5-10 days incubation. The class given is cell-based. As for the experimental part: (§1) Elsamitrucin and Elsamitrucin tosylate were tested in vitro using: B16F10 (murine […]), HCT 116 (human colon), HT29 (human colon) and SK-MES-1 (human non-small cell lung carcinoma ). Cell growth inhibition was evaluated in 96-well micro-culture plates with a semi-automated MTT (3-(4,5-dimethylthiazol-2-yl)-2,5-diphenyltetrazolium bromide) assay.
(§2) SK-MES-1 human non-small cell lung carcinoma, B16F10 murine melanoma cells, HCT 116 and HT29 human colon carcinomas (collectively “test cell cultures”) were maintained in buffered RPMI 1640 supplemented with fetal calf serum, antibiotics and other appropriate growth factors such as glutamine. Test cells (1,500-2,000 cells/well) were seeded in a 96-well micro culture plate with a total volume of 100 μL/well. After overnight incubation in a humidified incubator at 37° C. with 5% CO2 and 95% air, elsamitrucin solutions were diluted to various concentrations with RPMI 1640, were added to each well in a 100 μL volume. The elsamitrucin base and the elsamitrucin tosylate solutions (elsamitrucin solutions) were prepared and stored in a −20° C. freezer. The solutions were thawed not more than 10 times for the entire experiment.
(§3) Cell culture plates seeded with test cells and various concentrations of elsamitrucin solutions were placed in a humidified incubator at 37° C., with CO2 and 95% air for 5-10 days. […]

In another data set the test system is MCF7. To be noted: ER+ MCF7; cited from earlier work.
The subject of data set [2] is HT29 human colon carcinoma. Put plainly: MTT cell growth inhibition, HT29. To be noted: 5-10 days incubation. The data set is classed as cell-based. As to the method: as §1, §2, §3
Data set [3] has as its system patients with refractory/relapsed non-Hodgkin's lymphoma. To be noted: cited from earlier work.
Data set [4] relates to HCT 116 human colon carcinoma. Put plainly: MTT cell growth inhibition, HCT 116. The data set is classed as cell-based. Conditions: 5-10 days incubation. As for the experimental part: as §1, §2, §3
The test system of data set [5] is B16F10 murine melanoma cells. As to the kind of experiment: MTT cell growth inhibition, B16F10. The data set is classed as cell-based. Conditions: 5-10 days incubation. As to the method:
as §1, §2, §3

The test system of data set [6] is clinical breast cancer specimens from untreated patients. Conditions: cited from earlier work.
A further data set relates to MDA-MB-231. Conditions: ER− MDA-MB-231; cited from earlier work.

Usually IC50 stands for the midpoint of a concentration-inhibition curve. A high value points to a need for much substance.

Regarding “benzo(h)(1)benzopyrano(5,4,3-cde)(1)ebnzopyran-5,12-dione,10((2-O-(2-amino-2,6-dideoxy-3-O-methyl-alpha-D-galactopyranosyl)-6-deoxy-3-C-methyl-beta-D-galactopyranosyl)oxy)-6-hydroxy-1-methyl [Elsamitrucin]”, in the data set with MCF7DX, the “cross-resistance to doxorubicin (DX)” value is “cross-resistant to DX”. The IC50 in data set [1] was 42 nM; in [2] it was 95 nM; in [4] it was 74 nM; in [5], 24 nM. Besides, the IC50 antiproliferative effect with MCF7 is recorded as 0.25 micrograms/ml; in the data set on MDA-MB-231, 0.21 micrograms/ml. The elsamitrucin-associated toxicity result in [3] is “relatively mild”. For the same substance, the myelosuppression entry in data set [3] is listed as “did not include myelosuppression”. The minimal inhibiting concentration in [6] (ER+ tumors) is 0.1 micrograms/ml; in [6] (ER− tumors) it was 3.5 micrograms/ml.
